From publication PMC11404609, “Gut microbiota-mediated C-sulfonate metabolism impairs the bioavailability and anti-cholestatic efficacy of andrographolide” (Gut Microbes, 2024)
Values joined by “and” are separate entries in the source; they are usually repeats but may differ in a detail not shown here. Equal entries are not always repeated.

Experiments:
[1] = Plasma pharmacokinetics of AP after oral administration in rats; format: in vivo; conditions: for AUC(0-t) / Cmax / Tmax / half-life / AUC(0-inf): rat, plasma, po, 120 mg/kg, mean ± SD; for AUC(0-t) / Cmax / Tmax / half-life / AUC(0-inf) / Fr (%) relative oral bioavailability: AP 120 mg/kg oral gavage
Method: Control and ABX rats were orally administered a single dose of AP at 120 mg/kg. Blood samples (500 μL) were collected at predetermined time intervals (0, 5, 10, 20, 30, 40, 60, 90, 120, 180, 240, 360, and 480 min). In some cases, APS reductase inhibitor bromocriptine mesylate (20 mg/kg, p.o.) or Na2SO4 (200 mg/kg, p.o.) was given to rats 1 week before AP treatment.
The pharmacokinetic parameters of AP including peak time (Tmax), maximum concentration (Cmax), area under the curve from zero time to the last time point measured (AUC0-t), area under the curve from zero time to infinity (AUC0-∞), and elimination half-life (t1/2) were estimated using DAS 2.0 software (Shanghai, China). The relative oral bioavailability (Fr) of AP was calculated by the following equation: Fr(%)=AUC0−∞of ABX/Inhibitor/SO42−/D.piger/AUC0−∞of Control×100%
An ACQUITY^TM UPLC-MS/MS system equipped with an ACQUITY^TM UPLC BEH C18 Column (50 × 2.1 mm I.D., 1.7 μm, Waters, Milford, MA, USA) was utilized for the quantification of AP and APM as previously described.[47] Briefly, the detection samples (50 μL) were mixed with 50 μL of IS (50 ng/mL). AP and APM were extracted by 400 μL cold methanol. Supernatants were dried under nitrogen stream. Then, the residue was dissolved with 50% methanol in water, centrifuged for 30 min at 13,000 rpm, and 10 µL of the supernatant was subjected to UPLC-MS/MS analysis. The mobile phases consisted of eluent A (water) and eluent B (methanol) with a gradient elution as follows: 0–0.8 min, 10% B; 0.8–1.2 min, 10–90% B; 1.2–5.0 min, 90% B; 5.0–5.5 min, 90–10% B; 5.5–7.0 min, 10% B. The flow rate was 0.3 mL/min and the injection volume of all samples was 10 μL. The quantification of AP, APM and IS was performed by UPLC-MS/MS using an MRM method with the transitions of m/z 349.1→m/z 287.2 for AP, m/z 413.2→m/z 287.2 for APM, m/z 269→m/z 133 for IS.

FXR = FXR expression in liver (RNA sequencing, qPCR, Western blot); format: in vivo, mice
Method: RNA in liver tissue was isolated from mice treated with ANIT and ANIT+AP (200 mg/kg, i.p.) and purified by TRIzol (Invitrogen, CA). The isolated RNA was quantified using Qubit 2.0 (Thermo Fisher Scientific, USA) following the manufacturer’s protocol. Libraries were prepared using the NEBNext® UltraTM RNA Library Prep Kit for Illumina® (NEB, USA) and sequenced on a Novaseq 6000 (Illumina, USA) at Novogene’s deep sequencing facility. Mapped reads from each sample were assembled using StringTie (v1.3.3b) in a reference-based approach, and featureCounts was used to quantify mapped reads. Differential expression analysis of two conditions/groups was performed using the DESeq2 R package (1.20.0).
Total RNA from frozen livers of Vehicle, AP (200 mg/kg, i.p.), ANIT (50 mg/kg), and ANIT+AP (200 mg/kg, i.p.) groups was extracted using the Animal Total RNA Isolation Kit (FOREGENE, China). cDNA was synthesized using a Color Reverse Transcription Kit (EZBioscience, Roseville, CA, USA). qPCR was performed using SYBR green/Rox qPCR master mix (EZBioscience, Roseville, CA, USA), according to the manufacturer’s instruction. The expression of target genes was normalized to β-actin, and fold changes were calculated using 2^–ΔΔCT method. For bacterial identification, genomic DNA of fecal flora was isolated using the TIANamp Stool DNA Kit (TIANGEN, Beijing, China) and qPCR was performed. […]

[2] = SD, rats, Control group (Table 1), n = 4
[3] = Sprague-Dawley (SD), rats, Control group (Table 2), n = 4
[4] = Sprague-Dawley (SD), rats, Inhibitor group (bromocriptine mesylate 20 mg/kg p.o. 1 week before), n = 4
[5] = Sprague-Dawley (SD), rats, SO4^2- group (Na2SO4 200 mg/kg p.o. 1 week before), n = 5
[6] = Sprague-Dawley, rats, Control group (Table 2), n = 4
[7] = Sprague-Dawley, rats, Inhibitor group (bromocriptine mesylate 20 mg/kg p.o. 1 week before), n = 4
[8] = Sprague-Dawley, rats, SO4^2- group (Na2SO4 200 mg/kg p.o. 1 week before), n = 5

enhancement in the relative oral bioavailability of AP ([1]; ABX-treated rats vs Control): 70.11% and 70%
AUC(0-t) ([1]; SD, rats, ABX group, n = 4): 4430 ng·h/mL
Cmax ([1]; SD, rats, ABX group, n = 4): 1330 ± 250 ng/mL
Tmax ([1]; SD, rats, ABX group, n = 4): 0.708 h
half-life ([1]; SD, rats, ABX group, n = 4): 2.31 ± 0.734 h
AUC(0-t) [1, 2]: 2360 ng·h/mL
Cmax [1, 2]: 690 ± 190 ng/mL
Tmax [1, 2]: 0.833 h
half-life [1, 2]: 3.07 ± 0.928 h
AUC(0-inf) [1, 3]: 3690 ng·h/mL
AUC(0-t) [1, 3]: 3440 ng·h/mL
AUC(0-inf) [1, 4]: 8020 ng·h/mL
AUC(0-t) [1, 4]: 7520 ng·h/mL
AUC(0-inf) [1, 5]: 1870 ng·h/mL
AUC(0-t) [1, 5]: 1360 ng·h/mL
half-life [1, 5]: 4.38 ± 3.23 h
AUC(0-inf) ([1]; Sprague-Dawley, rats, ABX group, n = 4): 5110 ng·h/mL
AUC(0-inf) ([1]; Sprague-Dawley, rats, Control group (Table 1), n = 4): 3000 ng·h/mL
Cmax [1, 6]: 1420 ± 710 ng/mL
Tmax [1, 6]: 0.5 h
half-life [1, 6]: 2.04 ± 0.397 h
Cmax [1, 7]: 2750 ± 710 ng/mL
Tmax [1, 7]: 0.583 h
half-life [1, 7]: 1.82 ± 0.589 h
Cmax [1, 8]: 490 ± 190 ng/mL
Tmax [1, 8]: 0.533 h
Fr (%) relative oral bioavailability ([1]; rats, ABX group vs Control (AUC0-∞ ratio)): 170.11%
Fr (%) relative oral bioavailability ([1]; rats, Inhibitor group vs Control (AUC0-∞ ratio)): 217.24%
Fr (%) relative oral bioavailability ([1]; rats, SO4^2- group vs Control (AUC0-∞ ratio)): 50.70%
increase in AP bioavailability ([1]; rats, inhibition of APS reductase by bromocriptine mesylate): 117.24% and 117%
reduction in AP bioavailability ([1]; rats, treatment of Na2SO4): 49.30%
SMILES: C=C1CC[C@@H]2[C@](C)(CO)[C@H](O)CC[C@@]2(C)[C@@H]1C/C=C1/C(=O)OC[C@H]1O [AP, Andrographolide]
expression of Fxr (Nr1h4) by RNA-sequencing (FXR; ANIT+AP (200 mg/kg, i.p.) vs ANIT): significant upregulation
FXR expression by qPCR and Western blot (FXR; after AP treatment (200 mg/kg, i.p.)): upregulation of FXR expression
